The source of these data is ChEMBL document CHEMBL1153562, “Are all the DNA gyrase mutations found in Mycobacterium leprae clinical strains involved in resistance to fluoroquinolones?” (Antimicrob Agents Chemother, 2008).

Experiment [1] has as its system Mycobacterium leprae. In words: Inhibition of Mycobacterium leprae DNA gyrase subunit A G89C mutant assessed as DNA supercoiling inhibition.
The subject of experiment [2] is Mycobacterium leprae. In words: Inhibition of Mycobacterium leprae DNA gyrase subunit A A91V mutant assessed as DNA supercoiling inhibition.
For experiment [3], the system named is Mycobacterium leprae. Description: Inhibition of Mycobacterium […] B D205N mutant assessed as DNA supercoiling inhibition.
For experiment [4], the system named is Mycobacterium leprae. Description: Inhibition of Mycobacterium leprae wild type DNA gyrase A2B2 assessed as formation of DNA cleavable complex.
The test system of experiment [5] is Mycobacterium leprae [A91V]. Description: (§1) Inhibition of Mycobacterium […] A A91V mutant assessed as formation of DNA cleavable complex.
Experiment [6] deals with Mycobacterium leprae. In words: Inhibition of Mycobacterium […] B D205N mutant assessed as formation of DNA cleavable complex.
The test system of experiment [7] is Mycobacterium leprae. Description: Inhibition of Mycobacterium leprae wild type DNA gyrase A2B2 assessed as DNA supercoiling inhibition.
Experiment [8] deals with Mycobacterium leprae. The experiment is described as §1.
The subject of experiment [9] is Mycobacterium leprae. Description: Selectivity index, ratio of CC25 for Mycobacterium leprae DNA gyrase subunit A A91V mutant to CC25 for Mycobacterium leprae wild type DNA gyrase A2B2 by DNA cleavage assay.
In experiment [10] the test system is Mycobacterium leprae. Description: Selectivity index, ratio of IC50 for Mycobacterium leprae DNA gyrase subunit A A91V mutant to IC50 for Mycobacterium leprae wild type DNA gyrase A2B2.
Experiment [11] deals with Mycobacterium leprae. In words: Selectivity index, ratio of IC50 for Mycobacterium leprae DNA gyrase subunit A G89C mutant to IC50 for Mycobacterium leprae wild type DNA gyrase A2B2.

Values after ≈ are worked out from the molar mass of the structure shown. Active and inactive are the calls of the source. The rule behind the calls is not given here.

For the molecule `CCn1cc(C(=O)O)c(=O)c2ccc(C)nc21` [NALIDIXIC ACID], the results for the IC50 with Mycobacterium leprae [1], in the experiment with Mycobacterium leprae [2] and in the experiment on Mycobacterium leprae [3] were 150 µg/mL (≈ 646 µM), 170 µg/mL (≈ 732 µM) and 600 µg/mL (≈ 2580 µM), respectively. In addition, the CC25 result (with Mycobacterium leprae [4]; in experiment [5]; in the experiment on Mycobacterium leprae [6]) was “inactive” in each case.
For the molecule `C[C@H]1NCc2cc(-c3ccc4c(=O)c(C(=O)O)cn(C5CC5)c4c3OC(F)F)ccc21` [GARENOXACIN], the half-inhibitory concentration (IC50) stood at 6 µg/mL (≈ 14.1 µM) with Mycobacterium leprae [7], 5 µg/mL (≈ 11.7 µM) in the experiment on Mycobacterium leprae [1], 8 µg/mL (≈ 18.8 µM) with Mycobacterium leprae [2] and 16 µg/mL (≈ 37.5 µM) in the experiment on Mycobacterium leprae [3]. Also, the CC25 in the experiment with Mycobacterium leprae [4] worked out at 1 µg/mL (≈ 2.35 µM); in the experiment on Mycobacterium leprae [8], 17 µg/mL (≈ 39.9 µM). In addition, the fold change (FC) in the experiment on Mycobacterium leprae [9] was determined as 17.
`CC1COc2c(N3CCN(C)CC3)c(F)cc3c(=O)c(C(=O)O)cn1c23` (stereo unspecified) [OFLOXACIN]: the half-maximal inhibitory concentration (IC50) in the experiment with Mycobacterium leprae [7] turned out to be 15 µg/mL (≈ 41.5 µM); in the experiment on Mycobacterium leprae [1], 160 µg/mL (≈ 443 µM); in the experiment on Mycobacterium leprae [2], 80 µg/mL (≈ 221 µM); with Mycobacterium leprae [3], 20 µg/mL (≈ 55.3 µM). Further, the CC25 was determined as 9 µg/mL (≈ 24.9 µM) in the experiment on Mycobacterium leprae [4], 110 µg/mL (≈ 304 µM) in the experiment on Mycobacterium leprae [8] and 8 µg/mL (≈ 22.1 µM) with Mycobacterium leprae [6]. The “fold change (FC)” value worked out at 5 in the experiment on Mycobacterium leprae [10] and 12 in the experiment on Mycobacterium leprae [9].
Take `COc1c(N2C[C@@H]3CCCN[C@@H]3C2)c(F)cc2c(=O)c(C(=O)O)cn(C3CC3)c12` [MOXIFLOXACIN]: the 50% inhibitory concentration (IC50) with Mycobacterium leprae [7] was determined as 6 µg/mL (≈ 14.9 µM); with Mycobacterium leprae [1], 30 µg/mL (≈ 74.7 µM); in the experiment with Mycobacterium leprae [2], 25 µg/mL (≈ 62.3 µM). The results for the “fold change (FC)” value in the experiment on Mycobacterium leprae [11] and in the experiment on Mycobacterium leprae [10] were 3 and 5, respectively.
As for `COc1c(N2CCNC(C)C2)c(F)cc2c(=O)c(C(=O)O)cn(C3CC3)c12` (stereo unspecified) [GATIFLOXACIN], the IC50 in the experiment on Mycobacterium leprae [7] is 3.5 µg/mL (≈ 9.32 µM); in the experiment on Mycobacterium leprae [1] it was 20 µg/mL (≈ 53.3 µM); with Mycobacterium leprae [2], 20 µg/mL (≈ 53.3 µM); in the experiment on Mycobacterium leprae [3], 4.5 µg/mL (≈ 12 µM). Further, the CC25 came to 0.3 µg/mL (≈ 0.799 µM) in the experiment on Mycobacterium leprae [4] and 4 µg/mL (≈ 10.7 µM) in the experiment with Mycobacterium leprae [8]. The “fold change (FC)” value in the experiment with Mycobacterium leprae [10] is 5; with Mycobacterium leprae [9] it was 12.
For `CO[C@@H]1[C@@H](OC(N)=O)[C@@H](O)[C@H](Oc2ccc3c(O)c(NC(=O)c4ccc(O)c(CC=C(C)C)c4)c(=O)oc3c2C)OC1(C)C` [NOVOBIOCIN], the IC50 is 0.25 µg/mL (≈ 0.408 µM) in the experiment with Mycobacterium leprae [7], 0.3 µg/mL (≈ 0.49 µM) with Mycobacterium leprae [1], 0.2 µg/mL (≈ 0.326 µM) with Mycobacterium leprae [2] and 0.3 µg/mL (≈ 0.49 µM) with Mycobacterium leprae [3].
Consider `CCn1cc(C(=O)O)c(=O)c2cc3c(cc21)OCO3` [OXOLINIC ACID], for which the half-inhibitory concentration (IC50) in the experiment on Mycobacterium leprae [7] was found to be 400 µg/mL (≈ 1530 µM); with Mycobacterium leprae [1] it was 180 µg/mL (≈ 689 µM); in the experiment with Mycobacterium leprae [2], 200 µg/mL (≈ 766 µM); in the experiment with Mycobacterium leprae [3], 700 µg/mL (≈ 2680 µM). In addition, the CC25 entry (in the experiment on Mycobacterium leprae [4]; in experiment [5]; with Mycobacterium leprae [6]) was “inactive” each time.
